From patent publication US20260265329A1, “POLYPEPTIDE AND DERIVATIVE THEREOF, COMPOSITION, AND USE THEREOF” (HANGZHOU SCIWIND BIOSCIENCES CO., LTD., priority 2023, published 2026) come the findings set out here.

Starred links: 1 amine or outer side, 2 acyl side, 3 side chain; linkers in the order of their positions; H or OH if unused. Non-standard residues stand in square brackets, D forms with d. Residues, ends and D or L forms follow the SMILES beside them. *: point of attachment. C20 diacid = O=C(O)CCCCCCCCCCCCCCCCCCC(=O)*; γGlu = O=C(O)[C@H](CCC(=O)[*:2])N[*:1]; Hyp = O=C(O)[C@@H]1C[C@@H](O)CN1

Series [1] addresses T1, human amylin receptors (Homo sapiens, UniProt O60896+P30988).
T1 construct: host or cells: CHO-K1/Ga15/AMY3 cells, further stably transfected with a CRE-luciferase plasmid
T1 sequence (P30988 25-474): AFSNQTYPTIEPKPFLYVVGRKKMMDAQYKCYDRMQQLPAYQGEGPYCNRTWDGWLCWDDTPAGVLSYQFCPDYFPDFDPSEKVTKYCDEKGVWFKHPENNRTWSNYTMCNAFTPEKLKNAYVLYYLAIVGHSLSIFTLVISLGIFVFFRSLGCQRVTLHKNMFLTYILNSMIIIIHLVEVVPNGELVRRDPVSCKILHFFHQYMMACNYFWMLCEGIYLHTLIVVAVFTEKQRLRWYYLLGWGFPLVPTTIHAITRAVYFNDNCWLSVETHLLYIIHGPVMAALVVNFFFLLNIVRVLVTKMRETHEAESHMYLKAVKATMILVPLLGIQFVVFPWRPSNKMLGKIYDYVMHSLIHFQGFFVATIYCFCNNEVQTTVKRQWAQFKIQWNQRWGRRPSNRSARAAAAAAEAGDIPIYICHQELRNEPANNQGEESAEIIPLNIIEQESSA
T1 sequence (O60896 24-148 partner): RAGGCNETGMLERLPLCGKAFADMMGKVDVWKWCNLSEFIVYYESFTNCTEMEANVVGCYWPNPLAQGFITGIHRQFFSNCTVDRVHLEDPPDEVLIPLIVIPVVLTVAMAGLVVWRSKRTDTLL
As to the kind of experiment: Luciferase assay in stably transfected amylin receptor/CRE-luc CHO cell line. It is filed as cell-based. The following applies: for Relative activity: EC50 ratio of Cagrilintide to the compound, Cagrilintide 100%; for EC50: amylin receptor/CRE-luc CHO cells, 24 hours incubation, luminescence.

The nature of series [2]: Heat accelerated stability assay, 40° C., detection on 7 d and 28 d. The following applies: for Purity from the reversed phase chromatography-214 nm, 0 d / Purity from the reversed phase chromatography-214 nm, 7 d / Purity from the reversed phase chromatography-214 nm, 28 d: 1 mg/mL, pH about 7.4, 40° C.; for Change (7 d − 0 d): purity on 7 d − purity on 0 d; for Change (7 d − 0 d) / Change (28 d − 0 d): 40° C., pH about 7.4; for Change (28 d − 0 d): purity on 28 d − purity on 0 d. It is filed as physicochemical. The procedure:
The derivatives (1 mg/mL) were mixed with sodium dihydrogen phosphate (1.42 mg/mL) and dissolved in ultrapure water. After adjusting pH to about 7.4 with hydrochloric acid/sodium hydroxide, the solution was filtered into a sterilized vial in a clean bench using a 0.22 μm sterile filter. The vial was then capped and placed into the stability test chamber at 40° C. Detections were made on Days 7 (7d) and 28 (28d), and during the assay, changes in the characteristics and properties of the polypeptides were observed and recorded. The sample was then centrifuged for 3 min at 10000 rpm at 4° C., and the supernatant was transferred to a liquid phase sample vial for detecting the concentration and purity of the polypeptides using liquid phase chromatography described as below.
Conditions of the reversed phase chromatography Flow rate: 1.0 mL/min; Autosampler temperature: 15° C.; Column temperature: 25° C.; Detection wavelength: 214 nm; Mobile phase A: 100% H2O+0.05% TFA; Mobile phase B: 100% ACN; and Gradient of elution listed in Table 4: […]

As a reminder, the EC50 is the midpoint of the concentration-response curve. A low value points to a more potent agent.

For the molecule `CC[C@H](C)[C@H](NC(=O)[C@@H]1CCCN1C(=O)[C@H](CCCCN)NC(=O)[C@H](CC(C)C)NC(=O)[C@H](CC(N)=O)NC(=O)[C@H](CC(N)=O)NC(=O)[C@H](CO)NC(=O)[C@H](CO)NC(=O)[C@H](Cc1c[nH]cn1)NC(=O)[C@H](CCCNC(=N)N)NC(=O)[C@H](CC(C)C)NC(=O)[C@H](Cc1ccccc1)NC(=O)[C@H](CC(=O)O)NC(=O)[C@H](C)NC(=O)[C@H](CC(C)C)NC(=O)[C@H](CCCNC(=N)N)NC(=O)[C@H](CCC(N)=O)NC(=O)[C@@H](NC(=O)[C@@H](NC(=O)[C@H](C)NC(=O)[C@@H](NC(=O)[C@H](CO)NC(=O)[C@H](CC(C)C)NC(=O)[C@H](CCC(N)=O)NC(=O)[C@H](CO)NC(=O)[C@H](C)NC(=O)CC[C@H](NC(=O)CCCCCCCCCCCCCCCCCCC(=O)O)C(=O)O)[C@@H](C)O)C(C)C)[C@@H](C)O)C(=O)N[C@@H](CC(C)C)C(=O)N1CCC[C@H]1C(=O)N1CCC[C@H]1C(=O)N[C@H](C(=O)N[C@@H](CC(N)=O)C(=O)N[C@H](C(=O)NCC(=O)N[C@@H](CO)C(=O)N[C@@H](CC(N)=O)C(=O)N[C@H](C(=O)N1C[C@H](O)C[C@H]1C(N)=O)[C@@H](C)O)C(C)C)[C@@H](C)O` [M7] ({C20 diacid-γGlu}-ASQLSTAVTQRLADFLRHSSNNLKPILPPTNVGSNT[Hyp]-NH2), in series [1], the Relative activity is 39% and the EC50 was 0.066 nM. Besides, in series [2], the “Purity from the reversed phase chromatography-214 nm, 0 d” value was found to be 93; the “Purity from the reversed phase chromatography-214 nm, 7 d” value was found to be 91.39; the “Purity from the reversed phase chromatography-214 nm, 28 d” value is given as 91.53; the “Change (7 d − 0 d)” value is −1.61. In series [2], the “Change (28 d − 0 d)” value is given as −1.47.

Turning to `CC[C@H](C)[C@H](NC(=O)[C@@H]1CCCN1C(=O)[C@H](CCCCN)NC(=O)[C@H](CC(C)C)NC(=O)[C@H](CC(N)=O)NC(=O)[C@H](CC(N)=O)NC(=O)[C@H](CO)NC(=O)[C@H](CO)NC(=O)[C@H](Cc1c[nH]cn1)NC(=O)[C@H](CCCNC(=N)N)NC(=O)[C@H](CC(C)C)NC(=O)[C@H](Cc1ccccc1)NC(=O)[C@H](CC(=O)O)NC(=O)[C@H](C)NC(=O)[C@H](CC(C)C)NC(=O)[C@H](CCCNC(=N)N)NC(=O)[C@H](CCC(N)=O)NC(=O)[C@H](CC(C)C)NC(=O)[C@@H](NC(=O)[C@H](C)NC(=O)[C@@H](NC(=O)[C@H](CO)NC(=O)[C@H](CC(C)C)NC(=O)[C@H](CCC(N)=O)NC(=O)[C@H](CO)NC(=O)[C@H](C)NC(=O)CC[C@H](NC(=O)CCCCCCCCCCCCCCCCCCC(=O)O)C(=O)O)[C@@H](C)O)C(C)C)C(=O)N[C@@H](CC(C)C)C(=O)N1CCC[C@H]1C(=O)N1CCC[C@H]1C(=O)N[C@H](C(=O)N[C@@H](CC(N)=O)C(=O)N[C@H](C(=O)NCC(=O)N[C@@H](CO)C(=O)N[C@@H](CC(N)=O)C(=O)N[C@H](C(=O)N1C[C@H](O)C[C@H]1C(N)=O)[C@@H](C)O)C(C)C)[C@@H](C)O` [M9] ({C20 diacid-γGlu}-ASQLSTAVLQRLADFLRHSSNNLKPILPPTNVGSNT[Hyp]-NH2), in series [1], the Relative activity was found to be 100% and it took 0.026 nM to reach a half-maximal effect (EC50). For the same molecule, in series [2], the “Purity from the reversed phase chromatography-214 nm, 0 d” value was 88.15; the “Purity from the reversed phase chromatography-214 nm, 7 d” value is recorded as 89.62; the “Purity from the reversed phase chromatography-214 nm, 28 d” value came out at 90.99; the “Change (7 d − 0 d)” value worked out at 1.47. In series [2], the “Change (28 d − 0 d)” value came to 2.84.
